Data on two compounds can be found in article PMC11358882, “Neuroprotective Effects of Phenolic Constituents from Drynariae Rhizoma” (Pharmaceuticals, 2024).

What all share (type): biochemical
In one experiment the target is T1, MAO-B (Homo sapiens, UniProt P27338).
T1 construct: purchased Abcam plc, Cambridge, UK ab284511
T1 sequence (P27338 1-520): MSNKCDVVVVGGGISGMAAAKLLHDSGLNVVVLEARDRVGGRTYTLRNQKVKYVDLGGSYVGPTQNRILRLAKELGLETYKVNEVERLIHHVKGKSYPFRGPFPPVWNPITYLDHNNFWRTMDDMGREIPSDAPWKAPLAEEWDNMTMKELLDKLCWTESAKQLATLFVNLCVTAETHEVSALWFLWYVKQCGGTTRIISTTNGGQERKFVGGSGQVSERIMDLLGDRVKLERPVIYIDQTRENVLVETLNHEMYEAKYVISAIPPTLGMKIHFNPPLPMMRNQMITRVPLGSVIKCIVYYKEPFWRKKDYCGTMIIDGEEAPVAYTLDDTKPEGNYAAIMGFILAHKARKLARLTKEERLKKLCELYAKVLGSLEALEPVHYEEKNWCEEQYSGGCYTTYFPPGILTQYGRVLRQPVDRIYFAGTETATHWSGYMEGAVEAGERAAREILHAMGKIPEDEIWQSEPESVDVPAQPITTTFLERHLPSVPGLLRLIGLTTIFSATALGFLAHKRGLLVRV
Briefly: MAO-B inhibitor screening kit (fluorometric) assay. To be noted: isolated compounds; mean ± SD, n = 3; ND = no detection using test concentration. On the procedure: The MAO-B-inhibition assay was conducted using the MAO-B Inhibitor Screening Kit (Fluorometric) ab284511 (Abcam plc, Cambridge, UK), following the manufacturer’s recommended protocol with minor modifications. The enzyme solution (50 µL) and the test sample (10 µL) were adjusted as per the manual instructions. […] After mixing, samples and enzymes were incubated at 25 °C for 10 min. Subsequently, 40 μL of MAO-B substrate (comprising MAO-B assay buffer, MAO substrate, developer, and OxiRed probe) was added, followed by further incubation at 25 °C for 5 min. Fluorescence was measured using enzyme-linked immunosorbent assay within 40 min with dynamic fluorescence (Ex/Em = 535/587 nm). All reactions were recorded in black 96-well microplates and performed in triplicate. The slope for all samples, including the enzyme control (EC), was calculated by dividing the net ΔRFU (RFU2–RFU1) values by the time Δt (T2 − T1). The % relative inhibition was computed as follows: % relative inhibition=(slope of EC−slope of S)/slope of EC×100 . The MAO-B-inhibitory activities of each sample were quantified in terms of IC50, as determined from the log–dose inhibition curve.

Another experiment concerns the target T2, BACE1 (Homo sapiens, UniProt P56817).
T2 construct: purchased PanVera Corporation, Madison, WI, USA P2985
In words: BACE1 (β-secretase) FRET inhibitory assay. To be noted: isolated compounds; mean ± SD, n = 3; read-out: IC50 BACE1. On the procedure:
The BACE1 inhibition assay was conducted using the BACE1 (β-secretase) FRET Assay Kit, Red Protocol, part number P2985 (PanVera® Corporation, Madison, WI, USA), following the manufacturer’s recommended protocol with minor modifications. The assay mixture consisted of 10 μL of BACE1 (1.0 U/mL), 10 μL of substrate (750 nM Rh-[…]-Quencher in 50 mM ammonium bicarbonate), the assay buffer (50 mM sodium acetate, pH 4.5), and 10 μL of the test samples. […] The reaction mixture was incubated for 60 min at room temperature in darkness. Before measurement, a stop solution (2.5 M sodium acetate) was added to halt the reaction. BACE1 enzyme activity was assessed by monitoring the proteolysis of two fluorophores (Rh-[…]-Quencher), forming the fluorescent donor (Rh-EVNL) with increased fluorescence wavelengths at 530–545 nm (excitation) and 570–590 nm (emission), respectively. All reactions were recorded in black 96-well microplates and performed in triplicate. The percentage of inhibition (%) was calculated using the following formula: inhibition (%)=[1−(S60−S0)/(C60−C0)]×100 , where C60 represents the fluorescence of the control after incubation, C0 represents the initial fluorescence of the control, S60 represents the fluorescence of the tested sample after incubation, and S0 represents the initial fluorescence of the tested sample. The BACE1-inhibitory activities of each sample were quantified in terms of IC50, which was determined from the log–dose inhibition curve.

A further experiment has as its target T3, Aβ1-42 (Homo sapiens, UniProt P05067).
T3 construct: Aβ1-42 used for the Th T assay was purchased from GL Biochem, Shanghai, China; purchased GL Biochem, Shanghai, China
In words: Thioflavin T assay, Aβ aggregation. To be noted: 24 h, Aβ1-42 20 μM. On the procedure: The Th T assay was conducted to assess the aggregation of Aβ into oligomers and fibrils. Aβ1-42 was dissolved in DMSO at a concentration of 1 mg/mL, and test samples were also dissolved in DMSO. Aβ1-42 (20 μM) was incubated with various concentrations of test samples at 37 °C for 24 h to evaluate the effects of test samples on Aβ aggregation. Subsequently, 3 μM of Th T was added, and fluorescence was measured after 30 min using an E-max precision microplate reader with excitation at 442 nm and emission at 485 nm (Epoch, BioTek, Winooski, VT, USA). Aβ treated with DMSO only served as a control, and each assay was performed in triplicate. Then, the Th T assay was performed to assess the effects of test samples on the disaggregation of preformed Aβ aggregates. Briefly, 20 μM of Aβ1-42 was incubated at 37 °C for 24 h. Various concentrations of test samples were then added and incubated at 37 °C for an additional 24 h. Subsequently, 3 μM of Th T was added, and fluorescence was measured after 30 min using an E-max precision microplate reader with excitation at 442 nm and emission at 485 nm (Epoch, BioTek, Winooski, VT, USA). Aβ treated with DMSO only served as a control, and each assay was performed in triplicate.

T3 sequence (P05067 672-713 limits assumed): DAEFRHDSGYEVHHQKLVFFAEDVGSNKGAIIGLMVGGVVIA
T2 sequence (P56817 46-501): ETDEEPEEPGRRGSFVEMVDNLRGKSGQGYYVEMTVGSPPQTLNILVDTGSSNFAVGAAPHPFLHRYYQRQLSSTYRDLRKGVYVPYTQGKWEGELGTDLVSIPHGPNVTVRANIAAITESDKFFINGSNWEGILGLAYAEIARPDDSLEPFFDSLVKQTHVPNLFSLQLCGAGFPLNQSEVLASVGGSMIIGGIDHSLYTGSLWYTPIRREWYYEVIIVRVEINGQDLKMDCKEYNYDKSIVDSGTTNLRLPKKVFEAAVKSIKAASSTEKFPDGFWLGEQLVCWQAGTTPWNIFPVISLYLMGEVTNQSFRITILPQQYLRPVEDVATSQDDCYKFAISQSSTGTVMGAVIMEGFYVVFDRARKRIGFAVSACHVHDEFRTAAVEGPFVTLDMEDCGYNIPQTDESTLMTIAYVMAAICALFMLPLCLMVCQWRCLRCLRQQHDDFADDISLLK

By IC50 is commonly meant the midpoint of a concentration-inhibition curve. As to `C[C@@H]1O[C@@H](Oc2c(-c3ccc(O)cc3)oc3cc(O[C@@H]4O[C@H](CO)[C@@H](O)[C@H](O)[C@H]4O)cc(O)c3c2=O)[C@H](O)[C@H](O)[C@H]1O` [Compound 6, kaempferol 3-O-rhamnoside 7-O-glucoside], the IC50 against MAO-B was 109.19 ± 0.08 µM; on BACE1, 83.27 ± 0.33 µM. Besides, the “decrease of Aβ aggregation relative to DMSO-treated control” value on Aβ1-42 (1.0 μM) is “approximately 40%”.

In the case of `O=c1c(O[C@@H]2O[C@H](CO)[C@@H](O)[C@H](O)[C@H]2O)c(-c2ccc(O)cc2)oc2cc(O[C@@H]3O[C@@H](CO)[C@H](O)[C@H]3O)cc(O)c12` [Compound 7, kaempferol 3-o-b-d-glucopyranoside-7-o-a-L-arabinofuranoside], the IC50 is 65.8 ± 3.72 µM on MAO-B and 39.11 ± 0.17 µM at BACE1. Besides, the “Aβ aggregation reduced to % of the levels in the DMSO-treated control” value on Aβ1-42 (0.5 μM) is roughly 55%; on Aβ1-42 (1.0 μM), “approximately 80%”. Moreover, the “decrease of Aβ aggregation relative to DMSO-treated control” value on Aβ1-42 (0.5 μM) was 55%; at Aβ1-42 (1.0 μM), roughly 80%.
